One assay addresses T1, PI3Kδ (Homo sapiens, UniProt O00329).
T1 construct: purchased Merck Millipore
As to the kind of experiment: In vitro kinase inhibition assay for PI3K (ADP-Glo), PI3Kδ. The assay is classed as biochemical. Particulars: recombinant kinase, mean of two independent experiments. On the procedure:
Tested compounds were dissolved in 100% DMSO, and obtained solutions were serially diluted in 1× reaction buffer. The recombinant kinase solution was diluted in a reaction mixture comprising 5× reaction buffer, respective compound solution (1 mM sodium diacetate 4,5-bisphosphate phosphatidylinositol (PIP2) solution in 40 mM Tris buffer), and water. In a 96-wells plate, 5 μL of compound solutions and 15 μL of the kinase solution in the reaction mixture were added per well. To initiate the interaction of chemical compounds to be tested with the enzyme, the plate was incubated for 10 min at a suitable temperature in a plate thermostat with orbital shaking at 600 rpm. Negative control wells contained all the above reagents except tested compound and kinase, and positive control wells contained all the above reagents except tested compounds. […] Subsequently, the plate was incubated for 1 h at 25 or 30 °C (depending on the PI3K isoform tested) in a plate thermostat with orbital shaking of the plate contents at 600 rpm. The reaction conditions are combined in the table below (Table 6).
Detection of ADP formed in the enzymatic reaction was then performed using ADP-Glo Kinase Assay™ (Promega, Madison, WI, USA). To the wells of a 96-well plate, 25 μL of ADP-Glo Reagent™ was added, and the plate was incubated for 40 min at 25 °C in a plate thermostat with orbital shaking at 600 rpm. Then 50 μL of Kinase Detection Reagent were added to each well, and the plate was incubated for 40 min at 25 °C in a plate thermostat with orbital shaking at 600 rpm. Once the incubation was complete, the luminescence intensity was measured using a Victor Light luminometer (Perkin Elmer, Inc., Waltham, MA, USA). IC50 values were determined based on luminescence intensity measured in wells containing tested compounds at different concentrations in relation to control wells. […] Each compound was tested at least in quadruplicates (4 wells) on two 96-well plates utilizing at least 4 wells for each control.
(ADP-Glo first removes unused ATP, then detects ADP through luciferase.)

For another assay, the target named is T2, PI3Kα (Homo sapiens, UniProt P42336).
T2 construct: purchased Carna Biosciences
Kind of assay: In vitro kinase inhibition assay for PI3K (ADP-Glo), PI3Kα. The assay is classed as biochemical. Particulars: for IC50: recombinant kinase, ADP-Glo, mean of two independent experiments; for Fold Selectivity α/δ: ratio of IC50 PI3Kα to IC50 PI3Kδ. On the procedure: Tested compounds were dissolved in 100% DMSO, and obtained solutions were serially diluted in 1× reaction buffer. The recombinant kinase solution was diluted in a reaction mixture comprising 5× reaction buffer, respective compound solution (1 mM sodium diacetate 4,5-bisphosphate phosphatidylinositol (PIP2) solution in 40 mM Tris buffer), and water. In a 96-wells plate, 5 μL of compound solutions and 15 μL of the kinase solution in the reaction mixture were added per well. To initiate the interaction of chemical compounds to be tested with the enzyme, the plate was incubated for 10 min at a suitable temperature in a plate thermostat with orbital shaking at 600 rpm. Negative control wells contained all the above reagents except tested compound and kinase, and positive control wells contained all the above reagents except tested compounds. The enzymatic reaction was initiated by adding 5 μL of 150 μM ATP solution. Subsequently, the plate was incubated for 1 h at 25 or 30 °C (depending on the PI3K isoform tested) in a plate thermostat with orbital shaking of the plate contents at 600 rpm. The reaction conditions are combined in the table below (Table 6).
Detection of ADP formed in the enzymatic reaction was then performed using ADP-Glo Kinase Assay™ (Promega, Madison, WI, USA). To the wells of a 96-well plate, 25 μL of ADP-Glo Reagent™ was added, and the plate was incubated for 40 min at 25 °C in a plate thermostat with orbital shaking at 600 rpm. Then 50 μL of Kinase Detection Reagent were added to each well, and the plate was incubated for 40 min at 25 °C in a plate thermostat with orbital shaking at 600 rpm. Once the incubation was complete, the luminescence intensity was measured using a Victor Light luminometer (Perkin Elmer, Inc., Waltham, MA, USA). IC50 values were determined based on luminescence intensity measured in wells containing tested compounds at different concentrations in relation to control wells. These values were calculated with Graph Pad 5.03 software by fitting the curve using non-linear regression. Each compound was tested at least in quadruplicates (4 wells) on two 96-well plates utilizing at least 4 wells for each control. Averaged results of inhibition activity respective to specific isoforms of PI3K kinases for tested compounds are presented as IC50 values in Table 1, Table 2, Table 3 and Table 4.

“And” between values parts separate entries of the source, which are not always exact repeats. Equal values may be shown once. Read-outs that look alike come from different tables or passages of the source.

T1 sequence (P27986 whole entry): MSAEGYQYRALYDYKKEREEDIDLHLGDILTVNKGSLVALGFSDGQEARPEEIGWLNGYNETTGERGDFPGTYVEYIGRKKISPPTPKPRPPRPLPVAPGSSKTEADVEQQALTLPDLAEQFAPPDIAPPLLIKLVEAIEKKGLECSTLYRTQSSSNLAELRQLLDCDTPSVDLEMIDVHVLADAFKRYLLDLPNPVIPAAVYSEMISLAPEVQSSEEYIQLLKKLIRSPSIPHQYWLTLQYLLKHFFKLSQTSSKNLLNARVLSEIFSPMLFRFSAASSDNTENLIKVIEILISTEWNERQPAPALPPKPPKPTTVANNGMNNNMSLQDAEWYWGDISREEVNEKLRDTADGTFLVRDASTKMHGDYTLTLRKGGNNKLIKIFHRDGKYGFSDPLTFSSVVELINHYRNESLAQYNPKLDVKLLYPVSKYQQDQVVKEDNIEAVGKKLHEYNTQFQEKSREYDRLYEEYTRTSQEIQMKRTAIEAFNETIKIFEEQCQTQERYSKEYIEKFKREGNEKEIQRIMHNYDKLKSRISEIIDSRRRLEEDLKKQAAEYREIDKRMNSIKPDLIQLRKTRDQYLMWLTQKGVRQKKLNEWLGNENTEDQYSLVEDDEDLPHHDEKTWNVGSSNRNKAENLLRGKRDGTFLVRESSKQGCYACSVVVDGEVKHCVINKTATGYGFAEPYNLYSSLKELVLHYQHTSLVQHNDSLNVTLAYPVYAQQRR
T1 sequence (O00329 whole entry): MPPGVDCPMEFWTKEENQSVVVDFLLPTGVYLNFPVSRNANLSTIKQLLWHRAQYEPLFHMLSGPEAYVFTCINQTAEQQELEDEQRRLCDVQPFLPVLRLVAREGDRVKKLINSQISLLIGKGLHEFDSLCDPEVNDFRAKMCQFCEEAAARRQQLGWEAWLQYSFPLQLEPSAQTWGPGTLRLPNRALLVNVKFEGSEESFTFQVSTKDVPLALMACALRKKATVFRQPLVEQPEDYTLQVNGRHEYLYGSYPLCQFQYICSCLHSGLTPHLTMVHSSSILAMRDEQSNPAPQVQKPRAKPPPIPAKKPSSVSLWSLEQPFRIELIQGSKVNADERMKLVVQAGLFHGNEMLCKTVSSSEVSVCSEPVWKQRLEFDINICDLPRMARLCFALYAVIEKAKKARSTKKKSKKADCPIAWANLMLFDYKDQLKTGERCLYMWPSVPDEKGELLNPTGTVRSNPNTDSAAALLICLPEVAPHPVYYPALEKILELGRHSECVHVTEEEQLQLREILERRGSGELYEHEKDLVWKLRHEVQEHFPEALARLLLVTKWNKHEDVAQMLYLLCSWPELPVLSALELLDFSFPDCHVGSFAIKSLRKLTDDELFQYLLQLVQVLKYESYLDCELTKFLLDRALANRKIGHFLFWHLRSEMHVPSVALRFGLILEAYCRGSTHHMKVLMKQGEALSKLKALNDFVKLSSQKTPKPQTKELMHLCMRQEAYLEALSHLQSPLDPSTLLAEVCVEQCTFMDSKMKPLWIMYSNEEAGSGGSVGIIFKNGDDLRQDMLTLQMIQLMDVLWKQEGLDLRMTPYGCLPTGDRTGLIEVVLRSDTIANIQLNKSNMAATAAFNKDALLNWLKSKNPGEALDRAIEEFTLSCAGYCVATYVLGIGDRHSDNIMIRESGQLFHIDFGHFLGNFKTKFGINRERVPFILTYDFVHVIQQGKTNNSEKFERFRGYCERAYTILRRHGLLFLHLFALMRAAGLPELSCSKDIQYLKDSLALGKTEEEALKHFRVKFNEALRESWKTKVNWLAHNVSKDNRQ
T2 sequence (P42336 whole entry): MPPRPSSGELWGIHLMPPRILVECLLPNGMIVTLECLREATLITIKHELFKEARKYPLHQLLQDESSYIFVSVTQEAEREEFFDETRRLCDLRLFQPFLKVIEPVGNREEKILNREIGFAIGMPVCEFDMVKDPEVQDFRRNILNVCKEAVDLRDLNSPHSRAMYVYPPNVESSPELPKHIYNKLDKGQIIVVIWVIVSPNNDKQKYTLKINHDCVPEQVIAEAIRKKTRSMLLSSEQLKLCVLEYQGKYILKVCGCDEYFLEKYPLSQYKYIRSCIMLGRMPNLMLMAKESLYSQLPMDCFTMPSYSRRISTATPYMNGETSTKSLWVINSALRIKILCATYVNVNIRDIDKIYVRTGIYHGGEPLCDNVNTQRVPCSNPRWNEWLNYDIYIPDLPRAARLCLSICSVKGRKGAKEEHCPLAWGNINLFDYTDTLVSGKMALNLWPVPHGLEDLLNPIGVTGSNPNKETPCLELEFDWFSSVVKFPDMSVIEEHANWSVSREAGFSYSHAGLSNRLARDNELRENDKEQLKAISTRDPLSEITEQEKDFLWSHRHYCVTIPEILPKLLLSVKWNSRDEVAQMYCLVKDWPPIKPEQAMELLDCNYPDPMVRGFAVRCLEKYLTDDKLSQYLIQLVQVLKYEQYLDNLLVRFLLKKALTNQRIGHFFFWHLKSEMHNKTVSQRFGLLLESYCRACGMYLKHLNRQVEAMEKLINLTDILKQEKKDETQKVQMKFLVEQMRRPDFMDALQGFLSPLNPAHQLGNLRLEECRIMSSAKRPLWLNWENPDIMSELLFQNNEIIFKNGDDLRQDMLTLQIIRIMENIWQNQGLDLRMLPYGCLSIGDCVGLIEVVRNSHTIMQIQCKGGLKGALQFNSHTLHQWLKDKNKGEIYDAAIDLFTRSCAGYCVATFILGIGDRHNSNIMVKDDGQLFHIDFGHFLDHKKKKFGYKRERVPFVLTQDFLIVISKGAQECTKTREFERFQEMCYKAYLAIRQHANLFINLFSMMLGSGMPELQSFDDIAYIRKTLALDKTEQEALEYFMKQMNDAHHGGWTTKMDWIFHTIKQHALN
T2 sequence (P27986 whole entry partner): as the sequence (P27986 whole entry) above

Usually IC50 stands for the concentration needed to halve the response being measured. Consider `Cc1cc2nc(-n3c(C)nc4ccccc43)cc(N3CCOCC3)n2n1` [Compound 5, 2-methyl-5-(2-methylbenzimidazol-1-yl)-7-(morpholin-4-yl)pyrazolo[1,5-a]pyrimidine], for which the values for the 50% inhibitory concentration (IC50) at PI3Kδ (read-out: IC50 PI3Kδ) and at PI3Kα (IC50 PI3Kα) were 3560 nM and 35100 nM, respectively. Also, on PI3Kα, the “Fold Selectivity α/δ” value was 9.9.

For the compound `CCc1nc2ccccc2n1-c1cc(N2CCOCC2)n2nc(C)cc2n1` [Compound 6, 2-methyl-5-(2-ethylbenzimidazol-1-yl)-7-(morpholin-4-yl)pyrazolo[1,5-a]pyrimidine], the values for the IC50 at PI3Kδ (read-out: IC50 PI3Kδ) and at PI3Kα (IC50 PI3Kα) were 2300 nM and 25900 nM, respectively. The “Fold Selectivity α/δ” value on PI3Kα stood at 11.

In the case of `Cc1cc2nc(-n3c(C(F)F)nc4ccccc43)cc(N3CCOCC3)n2n1` [Compound 7, 2-methyl-5-(2-difluoromethylbenzimidazol-1-yl)-7-(morpholin-4-yl)pyrazolo[1,5-a]pyrimidine], the half-inhibitory concentration (IC50) at PI3Kδ (read-out: IC50 PI3Kδ) is 470 nM and 475 nM; on PI3Kα (IC50 PI3Kα) it was 1060 nM. Also, the “Fold Selectivity α/δ” value on PI3Kα is 2.2.

As to `Cc1cc(Nc2cc(N3CCOCC3)n3nc(C)cc3n2)[nH]n1` [Compound 9, 3-methyl-N-[2-methyl-7-(morpholin-4-yl)pyrazolo[1,5-a]pyrimidin-5-yl]-1H-pyrazol-5-amine], the 50% inhibitory concentration (IC50) is 43600 nM at PI3Kδ (read-out: IC50 PI3Kδ) and over 60000 nM at PI3Kα (IC50 PI3Kα). Moreover, at PI3Kα, the “Fold Selectivity α/δ” value is over 1.4.

`Cc1cc2nc(-c3cn[nH]c3)cc(N3CCOCC3)n2n1` [Compound 10, 2-methyl-7-(morpholin-4-yl)-5-(1H-pyrazol-4-yl)pyrazolo[1,5-a]pyrimidine]: the figures for the IC50 at PI3Kδ (read-out: IC50 PI3Kδ) and at PI3Kα (IC50 PI3Kα) were 12700 nM and 36200 nM, respectively. In addition, on PI3Kα, the “Fold Selectivity α/δ” value is on record as 2.9.

For the compound `Cc1cc2nc(-c3ccc(N)nc3)cc(N3CCOCC3)n2n1` [Compound 11, 2-methyl-7-(morpholin-4-yl)-5-(2-aminopyridin-5-yl)pyrazolo[1,5-a]pyrimidine], the IC50 at PI3Kδ (read-out: IC50 PI3Kδ) turned out to be 6860 nM; on PI3Kα (IC50 PI3Kα), 4640 nM. At PI3Kα, the “Fold Selectivity α/δ” value was 0.7.

With `Cc1cc2nc(-c3cccc4[nH]ncc34)cc(N3CCOCC3)n2n1` [Compound 12, 2-methyl-7-(morpholin-4-yl)-5-(1H-indazole-4-yl)pyrazolo[1,5-a]pyrimidine], the concentration for half-maximal inhibition (IC50) on PI3Kδ (read-out: IC50 PI3Kδ) was 3850 nM; on PI3Kα (IC50 PI3Kα), 4810 nM. Moreover, the “Fold Selectivity α/δ” value at PI3Kα is given as 1.2.

With `Cc1cc2nc(-c3cccc4[nH]ccc34)cc(N3CCOCC3)n2n1` [Compound 13, 2-methyl-7-(morpholin-4-yl)-5-(1H-indole-4-yl)pyrazolo[1,5-a]pyrimidine], the values for the IC50 at PI3Kδ (read-out: IC50 PI3Kδ) and at PI3Kα (IC50 PI3Kα) were 772 nM and 23500 nM, respectively. Moreover, the “Fold Selectivity α/δ” value on PI3Kα came out at 30.

Consider `CS(=O)(=O)N1CCN(Cc2cc3nc(-c4cccc5[nH]ccc45)cc(N4CCOCC4)n3n2)CC1` [Compound 23, 5-(1H-indol-4-yl)-2-((4-(methyl-sulphonyl)piperazin-1-yl)methyl)-7-(morpholin-4-yl)pyrazolo[1,5-a]pyrimidine], for which the IC50 on PI3Kδ (read-out: IC50 PI3K δ) turned out to be 402 nM; on PI3Kδ (read-out: IC50 PI3Kδ), 400 nM; on PI3Kα (IC50 PI3K α) it was 2350 nM; at PI3Kα (IC50 PI3Kα), 2350 nM. Moreover, the “Fold Selectivity α/δ” value on PI3Kα is reported as 5.8.

As to `O[C@@H]1CCN(Cc2cc3nc(-c4cccc5[nH]ccc45)cc(N4CCOCC4)n3n2)C1` [Compound 25], the half-maximal inhibitory concentration (IC50) on PI3Kδ (read-out: IC50 PI3K δ) was determined as 1990 nM.

As to `O[C@H]1CCN(Cc2cc3nc(-c4cccc5[nH]ccc45)cc(N4CCOCC4)n3n2)C1` [Compound 26], at PI3Kδ (read-out: IC50 PI3K δ), the IC50 was 2210 nM.

For the compound `O=S1(=O)CCN(Cc2cc3nc(-c4cccc5[nH]ccc45)cc(N4CCOCC4)n3n2)CC1` [Compound 27, 2-((1,1-dioxothiomorpholin-1-yl)-methyl)-5-(1H-indol-4-yl)-7-(morpholin-4-yl)pyrazolo[1,5-a]pyrimidine], the concentration for half-maximal inhibition (IC50) at PI3Kδ (read-out: IC50 PI3K δ) was found to be 266 nM; on PI3Kα (IC50 PI3K α), 8650 nM. In addition, the “Fold Selectivity α/δ” value at PI3Kα was found to be 33.

For the compound `c1cc(-c2cc(N3CCOCC3)n3nc(CN4CCOCC4)cc3n2)c2cc[nH]c2c1` [Compound 28, 5-(1H-indol-4-yl)-7-(morpholin-4-yl)-2-((morpholin-4-yl)methyl)pyrazolo[1,5-a]pyrimidine], the IC50 at PI3Kδ (read-out: IC50 PI3K δ) came out at 1070 nM.

Turning to `CN1CCN(C2CCN(Cc3cc4nc(-c5cccc6[nH]ccc56)cc(N5CCOCC5)n4n3)CC2)CC1` [Compound 29, 5-(1H-indol-4-yl)-2-((4-(4-methylpiperazin-1-yl)piperidin-1-yl)methyl)-7-(morpholin-4-yl)pyrazolo[1,5-a]pyrimidine], the IC50 at PI3Kδ (read-out: IC50 PI3K δ) amounted to 52 nM; at PI3Kα (IC50 PI3K α), 15600 nM. In addition, the “Fold Selectivity α/δ” value on PI3Kα was determined as 301.

As to `CCNC(=O)NC1CCN(Cc2cc3nc(-c4cccc5[nH]ccc45)cc(N4CCOCC4)n3n2)CC1` [Compound 30, 3-ethyl-1-(1-((5-(1H-indol-4-yl)-7-(morpholin-4-yl)pyrazolo[1,5-a]pyrimidin-2-yl)methyl)piperidin-4-yl)urea], the figures for the half-inhibitory concentration (IC50) on PI3Kδ (read-out: IC50 PI3K δ) and on PI3Kα (IC50 PI3K α) were 360 nM and 14200 nM, respectively. The “Fold Selectivity α/δ” value at PI3Kα is 39.

`O=C(Nc1ccccc1)NC1CCN(Cc2cc3nc(-c4cccc5[nH]ccc45)cc(N4CCOCC4)n3n2)CC1` [Compound 31, 1-phenyl-3-(1-((5-(1H-indol-4-yl)-7-(morpholin-4-yl)pyrazolo[1,5-a]pyrimidin-2-yl)methyl)piperidin-4-yl)urea]: the IC50 on PI3Kδ (read-out: IC50 PI3K δ) was determined as 559 nM.

For `COc1ccc(N2CCN(Cc3cc4nc(-c5cccc6[nH]ccc56)cc(N5CCOCC5)n4n3)CC2)cc1` [Compound 32, 5-(1H-indol-4-yl)-2-((4-(4-methoxyphenyl)piperazin-1-yl)-methyl)-7-(morpholin-4-yl)pyrazolo[1,5-a]pyrimidine], the half-inhibitory concentration (IC50) on PI3Kδ (read-out: IC50 PI3K δ) came out at 177 nM; at PI3Kα (IC50 PI3K α), 8790 nM. In addition, the “Fold Selectivity α/δ” value at PI3Kα is 50.

Turning to `CN1CCN(Cc2cc3nc(-c4cccc5[nH]ccc45)cc(N4CCOCC4)n3n2)CC1` [Compound 33, 5-(1H-indol-4-yl)-2-((4-methyl-piperazin-1-yl)methyl)-7-(morpholin-4-yl)pyrazolo[1,5-a]pyrimidine], the half-inhibitory concentration (IC50) at PI3Kδ (read-out: IC50 PI3K δ) worked out at 193 nM; at PI3Kα (IC50 PI3K α), 42400 nM. The “Fold Selectivity α/δ” value at PI3Kα is listed as 220.

`COC(=O)C1CCN(Cc2cc3nc(-c4cccc5[nH]ccc45)cc(N4CCOCC4)n3n2)CC1` [Compound 35, Methyl 1-((5-(1H-indol-4-yl)-7-(morpholin-4-yl)pyrazolo[1,5-a]pyrimidin-2-yl)methyl)piperidin-4-carboxylate]: the IC50 on PI3Kδ (read-out: IC50 PI3K δ) was determined as 138 nM; on PI3Kα (IC50 PI3K α), 8460 nM. Moreover, the “Fold Selectivity α/δ” value at PI3Kα is reported as 61.

As to `c1cc(-c2cc(N3CCOCC3)n3nc(CN4CCN(C5CCCC5)CC4)cc3n2)c2cc[nH]c2c1` [Compound 40, 2-((4-cyclopentylpiperazin-1-yl)methyl)-5-(1H-indol-4-yl)-7-(morpholin-4-yl)pyrazolo[1,5-a]pyrimidine], the IC50 on PI3Kδ (read-out: IC50 PI3K δ) came out at 42 nM; on PI3Kα (IC50 PI3K α) it was 13800 nM. On PI3Kα, the “Fold Selectivity α/δ” value is listed as 329.

As to `c1cc(-c2cc(N3CCOCC3)n3nc(CN4CCN(C5COC5)CC4)cc3n2)c2cc[nH]c2c1` [Compound 42], the IC50 at PI3Kδ (read-out: IC50 PI3K δ) was found to be 56 nM; at PI3Kα (IC50 PI3K α), 18700 nM. Moreover, the “Fold Selectivity α/δ” value on PI3Kα was determined as 334.
